Measured values: patent US20240391940A1, “FUSED RING-CONTAINING COMPOUND, APPLICATION THEREOF, AND COMPOSITION CONTAINING SAME” (GenEros Biopharma Ltd., priority 2020, published 2024)
Several values for one entry are separate records, joined by “and”; a condition that tells them apart may be missing. Identical values can stand only once. Entries after “also recorded” stand apart in the source; their conditions may differ. Like-named read-outs stand apart in the source and are kept apart here.

Legend:
female BALB/c mice = assay: Acute toxicity, single administration in mice; format: in vivo
Description: • Part I: Single administration. A total of 6 mice were used. They were randomly divided into 2 groups: the vehicle control and GEN1-284s (1000 mg/kg), dosed once by oral gavage and observed for 6 days, and changes in body weight and activities were recorded. • Part II: Multiple administrations. This experiment used a total of 6 mice. They were divided into two groups of 3: a GEN1-284s-1000 mg/kg group and a GEN1-284s-300 mg/kg group, and were intragastrically given GEN1-284s for 14 consecutive days at 200 μL each. The state and survival of the mice were observed every day, and their body weights were recorded. Two mice died 2 h after GEN1-284s-1000 mg/kg administration. The dose was changed to 600 mg/kg, and the experiment was continued.
This experiment used a total of 6 mice. They were randomly divided into two groups of 3: a vehicle group and a GEN1-284s-1000 mg/kg group, and were intragastrically dosed once on day 0 at 200 μL each. The state and survival of the mice were observed every day, and their body weights were recorded.
Changes in body weight and survival of the mice were observed during 6 days after the single administration, and changes in body weight and the survival of the mice were observed during 14 consecutive days of high-dose GEN1-284s administration.

[1] = system: Apoe KO mouse atherosclerosis model; assay: Atherosclerosis model: plaques in the cardiac (left ventricular) outflow tract; format: in vivo, C57BL/6 Apoe KO mice; details: Apoe KO mice, high-fat diet; GEN1-284s 60 mpk QD oral
Description: Method: Apoe KO mice were tested for basal blood lipid levels and divided into a normal control group and a high-fat group. After 8 weeks of housing, the mice from the high-fat group were divided into 4 groups of about 8: a normal diet group (Chow), a high-fat diet model group (HFD), an Atorvastatin positive group (HFD+atorvastatin 5 mpk, QD), and a GEN1-284s group (284-60 mpk, QD). Oral administration was performed for 8 consecutive weeks, and the effect of the compound on the following indicators in Apoe KO mice was observed: 4 blood lipid tests (TC, TG, HDL-C and LDL-C), aortic plaque En-face staining, and pathological oil red staining of the cardiac outflow tract.
Mice from the groups except for the normal diet control group (Chow) were fed with high-fat feed every day for […]. From week 9, each group was orally administered solvent or a corresponding test compound, and body weight data were recorded every day for 8 consecutive weeks. After the first 8 weeks' high-fat diet, blood samples were taken and centrifuged to separate serum, and the serum was tested for blood lipid levels (TCHO, TG, LDL-C and HDL-C). The mice were randomly grouped according to the TCHO results and body weight. During the subsequent 8 weeks of administration, blood lipid tests (TCHO, TG, LDL-C and HDL-C) were run once every 4 weeks.
Mouse heart samples were fixed overnight in 4% paraformaldehyde solution and dehydrated in sucrose solution. Then, the samples were embedded with OCT (Sakura, Japan) under a stereo microscope and made into 10 μm frozen sections. The sections were stained with oil red ORO and then subjected to routine pathological examinations. Images of the outflow tract were acquired under an optical microscope at 4× magnification, and high-quality morphological observations were carried out using an eyepiece with 20× magnification. The percentage of intimal lesions in the cardiac outflow tract was calculated. The detection criteria followed the criteria for histological classification of human atherosclerotic disease, which are described in detail below:
The area of plaques in the left ventricular outflow tract was measured using a microscope, and the proportion of plaques in the left ventricular outflow tract was calculated; this value reflects the degree of stenosis in the cardiac outflow tract vessel.

[2] = system: collagen-induced arthritis (CIA) mouse model; details: for clinical score / body weight: Mean ± SEM

O=C(Cc1ccc2ncccc2c1)N1CCC(n2c(=O)n(COP(=O)([O-])[O-])c3cccc(C(F)(F)F)c32)CC1.[Na+].[Na+] [GEN1-284 salt, (2-Oxo-3-(1-(2-(quinolin-6-yl)acetyl)piperidin-4-yl)-4-(trifluoromethyl)-2,3-dihydro-1H-benzo[d]imidazol-1-yl)methyl disodium phosphate]
Changes in body weight after the single administration (female BALB/c mice; 1000 mg/kg P.O once on day 0, Day 0, individual mice F4-F6): 23.5 and 21.2 and 21.1
Changes in body weight after the single administration (female BALB/c mice; 1000 mg/kg P.O once on day 0, Day 1, individual mice F4-F6): 23.8 and 21.5 and 22
Changes in body weight after the single administration (female BALB/c mice; 1000 mg/kg P.O once on day 0, Day 2, individual mice F4-F6): 23.5 and 21.9 and 21.7
Changes in body weight after the single administration (female BALB/c mice; 1000 mg/kg P.O once on day 0, Day 3, individual mice F4-F6): 24.1 and 21.8 and 20.3
Changes in body weight after the single administration (female BALB/c mice; 1000 mg/kg P.O once on day 0, Day 4, individual mice F4-F6): 24.3 and 21.8 and 22.7
Changes in body weight after the single administration (female BALB/c mice; 1000 mg/kg P.O once on day 0, Day 5, individual mice F4-F6): 23.8 and 21.6 and 23.4
Changes in body weight after the single administration (female BALB/c mice; 1000 mg/kg P.O once on day 0, Day 6, individual mice F4-F6): 23.4 and 21.6 and 22.8
Effect of single administration on body weight, activity and survival (female BALB/c mice; female BALB/c mice, 1000 mg/kg once by oral gavage, observed 6 days, 1000 mg/kg): did not affect the body weight or activity; also recorded: did not affect the survival and body weight of the animals
Left ventricular outflow tract plaques [1]: a certain ameliorating effect on outflow tract plaques
Day on which consistent significant inhibition of the score of arthritis began ([2]; CIA mice, GEN1-284s 50 mg/kg): 32 days
Histomorphological effect on arthritis ([2]; CIA mice, GEN1-284s 50 mg/kg): tendency to relieve arthritis in animals
Inhibition rate of clinical score curve AUC relative to vehicle control group ([2]; CIA mice, GEN1-284s 50 mg/kg): 56.9%
Pathology total score ([2]; CIA mice, GEN1-284s 50 mg/kg): lower than that of the vehicle control group
clinical score ([2]; CIA mice, GEN1-284s 50 mg/kg p.o. QD from day 28, day 21): 0.0 ± 0.00
clinical score ([2]; CIA mice, GEN1-284s 50 mg/kg p.o. QD from day 28, day 25): 0.3 ± 0.16
clinical score ([2]; CIA mice, GEN1-284s 50 mg/kg p.o. QD from day 28, day 28): 0.6 ± 0.26
clinical score ([2]; CIA mice, GEN1-284s 50 mg/kg p.o. QD from day 28, day 29): 0.8 ± 0.25
clinical score ([2]; CIA mice, GEN1-284s 50 mg/kg p.o. QD from day 28, day 32): 1.3 ± 0.31
clinical score ([2]; CIA mice, GEN1-284s 50 mg/kg p.o. QD from day 28, day 34): 1.8 ± 0.56
clinical score ([2]; CIA mice, GEN1-284s 50 mg/kg p.o. QD from day 28, day 36): 2.4 ± 0.84
clinical score ([2]; CIA mice, GEN1-284s 50 mg/kg p.o. QD from day 28, day 39): 2.9 ± 0.90
body weight ([2]; CIA mice, GEN1-284s 50 mg/kg, day 21): 20.64 ± 0.23
body weight ([2]; CIA mice, GEN1-284s 50 mg/kg, day 25): 20.73 ± 0.24
body weight ([2]; CIA mice, GEN1-284s 50 mg/kg, day 28): 20.65 ± 0.25
body weight ([2]; CIA mice, GEN1-284s 50 mg/kg, day 29): 20.49 ± 0.25
body weight ([2]; CIA mice, GEN1-284s 50 mg/kg, day 32): 19.66 ± 0.28
body weight ([2]; CIA mice, GEN1-284s 50 mg/kg, day 34): 20.41 ± 0.31
body weight ([2]; CIA mice, GEN1-284s 50 mg/kg, day 36): 20.54 ± 0.36
body weight ([2]; CIA mice, GEN1-284s 50 mg/kg, day 39): 20.48 ± 0.27
body weight ([2]; CIA mice, GEN1-284s 50 mg/kg, day 41): 20.95 ± 0.20
Day on which consistent significant inhibition of the score of arthritis began ([2]; CIA mice, GEN1-284s 150 mg/kg): 34 days
clinical score ([2]; CIA mice, GEN1-284s 150 mg/kg p.o. QD from day 28, day 21): 0.0 ± 0.00
clinical score ([2]; CIA mice, GEN1-284s 150 mg/kg p.o. QD from day 28, day 25): 0.0 ± 0.00
clinical score ([2]; CIA mice, GEN1-284s 150 mg/kg p.o. QD from day 28, day 28): 0.6 ± 0.26
clinical score ([2]; CIA mice, GEN1-284s 150 mg/kg p.o. QD from day 28, day 29): 0.9 ± 0.40
clinical score ([2]; CIA mice, GEN1-284s 150 mg/kg p.o. QD from day 28, day 32): 2.0 ± 0.42
clinical score ([2]; CIA mice, GEN1-284s 150 mg/kg p.o. QD from day 28, day 34): 2.5 ± 0.57
clinical score ([2]; CIA mice, GEN1-284s 150 mg/kg p.o. QD from day 28, day 36): 3.4 ± 0.78
clinical score ([2]; CIA mice, GEN1-284s 150 mg/kg p.o. QD from day 28, day 39): 3.9 ± 0.93
body weight ([2]; CIA mice, GEN1-284s 150 mg/kg, day 21): 20.40 ± 0.23
body weight ([2]; CIA mice, GEN1-284s 150 mg/kg, day 25): 20.53 ± 0.27
body weight ([2]; CIA mice, GEN1-284s 150 mg/kg, day 28): 20.64 ± 0.24
body weight ([2]; CIA mice, GEN1-284s 150 mg/kg, day 29): 20.48 ± 0.29
body weight ([2]; CIA mice, GEN1-284s 150 mg/kg, day 32): 20.06 ± 0.25
body weight ([2]; CIA mice, GEN1-284s 150 mg/kg, day 34): 20.41 ± 0.41
body weight ([2]; CIA mice, GEN1-284s 150 mg/kg, day 36): 20.70 ± 0.35
body weight ([2]; CIA mice, GEN1-284s 150 mg/kg, day 39): 20.40 ± 0.29
body weight ([2]; CIA mice, GEN1-284s 150 mg/kg, day 41): 20.91 ± 0.26
clinical score ([2]; CIA mice, GEN1-284s 300 mg/kg group (500 mg/kg 5 days, then 300 mg/kg) p.o. QD from day 28, day 21): 0.0 ± 0.00
clinical score ([2]; CIA mice, GEN1-284s 300 mg/kg group (500 mg/kg 5 days, then 300 mg/kg) p.o. QD from day 28, day 25): 0.0 ± 0.00
clinical score ([2]; CIA mice, GEN1-284s 300 mg/kg group (500 mg/kg 5 days, then 300 mg/kg) p.o. QD from day 28, day 28): 0.6 ± 0.26
clinical score ([2]; CIA mice, GEN1-284s 300 mg/kg group (500 mg/kg 5 days, then 300 mg/kg) p.o. QD from day 28, day 29): 0.6 ± 0.24
clinical score ([2]; CIA mice, GEN1-284s 300 mg/kg group (500 mg/kg 5 days, then 300 mg/kg) p.o. QD from day 28, day 32): 2.0 ± 0.58
clinical score ([2]; CIA mice, GEN1-284s 300 mg/kg group (500 mg/kg 5 days, then 300 mg/kg) p.o. QD from day 28, day 34): 2.5 ± 0.87
clinical score ([2]; CIA mice, GEN1-284s 300 mg/kg group (500 mg/kg 5 days, then 300 mg/kg) p.o. QD from day 28, day 36): 4.0 ± 1.15
clinical score ([2]; CIA mice, GEN1-284s 300 mg/kg group (500 mg/kg 5 days, then 300 mg/kg) p.o. QD from day 28, day 39): 5.5 ± 1.19
clinical score ([2]; CIA mice, GEN1-284s 300 mg/kg group (500 mg/kg 5 days, then 300 mg/kg) p.o. QD from day 28, day 41): 6.3 ± 1.38
body weight ([2]; CIA mice, GEN1-284s 300 mg/kg group (500 mg/kg 5 days, then 300 mg/kg), day 21): 20.18 ± 0.29
body weight ([2]; CIA mice, GEN1-284s 300 mg/kg group (500 mg/kg 5 days, then 300 mg/kg), day 25): 20.43 ± 0.27
body weight ([2]; CIA mice, GEN1-284s 300 mg/kg group (500 mg/kg 5 days, then 300 mg/kg), day 28): 20.65 ± 0.34
body weight ([2]; CIA mice, GEN1-284s 300 mg/kg group (500 mg/kg 5 days, then 300 mg/kg), day 29): 20.08 ± 0.49
body weight ([2]; CIA mice, GEN1-284s 300 mg/kg group (500 mg/kg 5 days, then 300 mg/kg), day 32): 19.48 ± 1.02
body weight ([2]; CIA mice, GEN1-284s 300 mg/kg group (500 mg/kg 5 days, then 300 mg/kg), day 34): 19.30 ± 1.05
body weight ([2]; CIA mice, GEN1-284s 300 mg/kg group (500 mg/kg 5 days, then 300 mg/kg), day 36): 19.60 ± 0.81
body weight ([2]; CIA mice, GEN1-284s 300 mg/kg group (500 mg/kg 5 days, then 300 mg/kg), day 39): 19.80 ± 0.96
body weight ([2]; CIA mice, GEN1-284s 300 mg/kg group (500 mg/kg 5 days, then 300 mg/kg), day 41): 20.30 ± 0.78
Mortality ([2]; CIA mice, GEN1-284s 500 mg/kg): death was caused among the mice
Tolerance ([2]; CIA mice, GEN1-284s 50, 150 and 300 mg/kg): good tolerance
Number of mice that died ([2]; high-dose group (500 mg/kg), day 32): On day 32, 1 mouse in the high-dose group died, and the dissection results showed that: the major abnormality was in the lungs, and no obvious abnormality was found in other organs.
